The values below come from patent publication US20070129426A1, “Therapeutic drugs for arthritis” (Shanghai Ambrosia Pharmaceutical Co., Ltd., priority 2003, published 2007).

The subject of test [1] is adjuvant-induced arthritis of rats. Put plainly: Adjuvant-induced arthritis of rats. It is filed as in vivo, Male Wistar rats. Here is the method: Experimental animal: Male Wistar rats. Body weights were about 150 g.
Method of administration: intraperitoneal injection. The dose of wedelolactone was 0.25 mg/kg or 12.5 mg/kg, prepared in 0.5% CMC. The dose of methotrexate (MTX) is 0.2 mg/kg.
Method of experiment: The animals were divided randomly into 4 groups based on their body weights. They were adapted for 3 days before experiments. The left hind planta of the rats were injected subcutaneously with 0.1 ml CFA emulsion to induce inflammation. On the Day 10, after the administration of the adjuvant, the rats were injected intraperitoneally with 5 ml/kg test compound wedelolactone for 19 continuous days. On and after the day of administration of the adjuvant, the change of thickness of the four rat paws was measured daily using a vernier caliper, and the volume of the back paw were measured using a Plethysmometer. The data from day 5, 10, 15, and 19 after administration were used for statistic analyses.

Test [2] relates to acute inflammation of mice ear caused by dimethylbenzene. Put plainly: Mice ear inflammation caused by dimethylbenzene. It is filed as in vivo, Kunming mice. Particulars: 25 mg/kg i.p., 4 days; 2 h after dimethylbenzene; n=10. How it is done:
Experimental animal: Kunming mice, body weight 18-22 g.
Method of administration: intraperitoneal injection. The doses of wedelolactone were 12.5 mg/kg and 25 mg/kg, respectively; the negative control used 0.5% CMC; the positive control used ibuprofen (25 mg/kg).
Method of experiment: The animals were divided randomly into 4 groups based on their body weights, 10 mice each group. The mice were administered with the test compound for 4 continuous days. On Day 4, both sides of the right ears of the mice were daubed evenly with 50 μl dimethylbenzene 2 hours after the administration. The left ears were not treated. The mice were left for 2 hours and then sacrificed by cervical dislocation. The ear specimens were obtained by punching both ears with a 8 mm hole-puncher. The specimens were weighed and the differences between the left and the right ears were used to evaluate the effect of the compound on the inflammation.

Test [3] relates to rat toes edema caused by carrageenan. Put plainly: Rat toes edema caused by carrageenan. The note with it: 25 mg/kg i.p., 7 days. It is filed as in vivo, Male Wistar rats. How it is done: Experimental animal: Male Wistar rats. Body weights are about 200 g.
Method of administration: intraperitoneal injection. The dose of compound 1, 2, or 3 is 12 mg/kg, respectively. The negative control used 0.5% CMC; the positive control used ibuprofen, with a dose of 25 mg/kg.
Method of experiment: The animals were divided randomly into […] based on their body weights, […]. The 4 groups were negative control group, positive control group, compound 1 group, compound 2 group, and compound 3 group. The animals were administered daily for 7 continuous days. On Day 7, the aponeurosis of right hind toes were injected with 0.1 ml of 1% carrageenan 30 minutes after the administration. The edema of the toes at different time points after induction of the inflammation was then measured.

Setting [4] is: 0.2 mg/kg i.p., day 5 after administration.
The mark [5] stands for this setting: 0.2 mg/kg i.p., day 5 after administration, adjuvant-injected paw.
[6] abbreviates: 0.2 mg/kg i.p., day 10 after administration.
The mark [7] stands for this setting: 0.2 mg/kg i.p., day 10 after administration, adjuvant-injected paw.
Setting [8] is: 0.2 mg/kg i.p., day 15 after administration.
The mark [9] stands for this setting: 0.2 mg/kg i.p., day 15 after administration, adjuvant-injected paw.
The mark [10] stands for this setting: 0.2 mg/kg i.p., day 19 after administration.
The mark [11] stands for this setting: 0.2 mg/kg i.p., day 19 after administration, adjuvant-injected paw.

Structures are written as SMILES.

Take `CN(Cc1cnc2nc(N)nc(N)c2n1)c1ccc(C(=O)N[C@@H](CCC(=O)O)C(=O)O)cc1` [MTX, methotrexate, reference compound]: in test [1] (setting [4]), the “Left front paw thickness, Day 5” value is given as 4.14 ± 0.14 mm; the “Right front paw thickness, Day 5” value stood at 4.00 ± 0.10 mm; the “Right hind paw thickness, Day 5” value was 4.89 ± 0.23 mm; the “Right hind paw volume, Day 5” value is 1.09 ± 0.07 mL. Moreover, in test [1] (setting [5]), the “Left hind paw thickness, Day 5” value is on record as 6.96 ± 1.97 mm and the “Left hind paw volume, Day 5” value came out at 1.68 ± 0.32 mL. Also, in test [1] (setting [6]), the “Left front paw thickness, Day 10” value amounted to 3.96 ± 0.10 mm; the “Right front paw thickness, Day 10” value was 3.84 ± 0.10 mm; the “Right hind paw thickness, Day 10” value is 4.87 ± 0.18 mm; the “Right hind paw volume, Day 10” value came out at 1.00 ± 0.10 mL. In test [1] (setting [7]), the “Left hind paw thickness, Day 10” value was found to be 7.44 ± 1.42 mm and the “Left hind paw volume, Day 10” value amounted to 1.73 ± 0.23 mL. Besides, in test [1] (setting [8]), the “Left front paw thickness, Day 15” value is recorded as 4.04 ± 0.10 mm; the “Right front paw thickness, Day 15” value is listed as 4.07 ± 0.13 mm; the “Right hind paw thickness, Day 15” value is given as 5.04 ± 0.28 mm; the “Right hind paw volume, Day 15” value amounted to 1.17 ± 0.11 mL. In test [1] (setting [9]), the “Left hind paw thickness, Day 15” value is reported as 7.86 ± 1.36 mm and the “Left hind paw volume, Day 15” value was 1.93 ± 0.34 mL. Further, in test [1] (setting [10]), the “Left front paw thickness, Day 19” value was found to be 4.09 ± 0.11 mm; the “Right front paw thickness, Day 19” value turned out to be 4.00 ± 0.12 mm; the “Right hind paw thickness, Day 19” value came to 4.90 ± 0.08 mm; the “Right hind paw volume, Day 19” value was 1.19 ± 0.09 mL. For the same compound, in test [1] (setting [11]), the “Left hind paw thickness, Day 19” value stood at 7.51 ± 1.40 mm and the “Left hind paw volume, Day 19” value was determined as 1.84 ± 0.26 mL. In addition, the “Primary inflammation of the left foot and secondary inflammation of the right foot (FIG. 2)” value in test [1] (treated with MTX) is on record as “alleviated”.

On to `CC(C)Cc1ccc(C(C)C(=O)O)cc1` (stereo not shown) [ibuprofen], for which the “Difference (mg) between left and right ear” value in test [2] is recorded as 11.4 ± 3.6 mg. For the same compound, in test [3] (1 h), the “Edema index (ml) after induction of the inflammation, 1 h” value was determined as 0.31 ± 0.06 mL. Moreover, the “Edema index (ml) after induction of the inflammation, 2 h” value in test [3] (2 h) was determined as 0.38 ± 0.10 mL. Moreover, the “Edema index (ml) after induction of the inflammation, 4 h” value in test [3] (4 h) stood at 0.42 ± 0.11 mL. Besides, the “Edema index (ml) after induction of the inflammation, 6 h” value in test [3] (6 h) stood at 0.39 ± 0.06 mL. Further, in test [3] (24 h), the “Edema index (ml) after induction of the inflammation, 24 h” value was found to be 0.37 ± 0.07 mL.
